Here are results for 16 molecules from publication PMC7767506, “Synthesis and Characterization of Store-Operated Calcium Entry Inhibitors Active in the Submicromolar Range” (International Journal of Molecular Sciences, 2020).

For assay [1], the system named is Jurkat cell SOCE. Put plainly: Thapsigargin-induced SOCE in Jurkat cells, Indo-1 [Ca2+]cyt measurement. Format: cell-based, human. As to conditions: for Ki: 1 µM thapsigargin 10 min, compound added 30 s prior to 1 mM CaCl2. As to the method: To visualize SOCE, we performed a classical protocol: Jurkat cells in Ca^2+-free HBS medium are stimulated by 1 µM thapsigargin (TG, black arrow, Figure 2A) during 600 s to allow the release of Ca^2+ ions by the ER, and the subsequent opening of the store-operated Ca^2+ channels (SOCC). Addition of 1 mM CaCl2 allowed for a massive entry of Ca^2+ ions through SOCC leading thus to an increase of the cytosolic calcium concentration ([Ca^2+]cyt). To test 2-APB and its analogues, different concentrations of compounds were added 30 s prior to Ca^2+ addition.
[Ca^2+]cyt was recorded by a fluorimetric ratio technique as previously described. Leukocytes were spun and resuspended at a density of 10^6 cells/mL in Hepes buffered saline (HBS; 135 mM NaCl, 5.9 mM KCl, 1.2 mM MgCl2, 11.6 mM Hepes, 11.5 mM glucose adjusted to pH 7.3 with NaOH). Due to the presence of 0.002% Ca^2+ in the NaCl, this HBS medium contained 0.1 mM of Ca^2+. Then, cells were incubated in the dark with 4 μM Indo-1-AM for one hour at room temperature under slow agitation. Cells were then centrifuged and resuspended in HBS medium before measurement. To perform the experiments, 0.5 to 1 × 10^6 cells were suspended in 2 mL HBS in a quartz cuvette and inserted into a spectrofluorophotometer (RF-1501 Shimadzu Corporation, Kyoto, Japan) connected to a PC computer (Dell Computer Corp., Montpellier, France). A temperature of 37°C was maintained by circulating water from a bath. Ultraviolet light of 360 nm was used for excitation of Indo-1, and emissions at 405 and 480 nm were recorded. Background and autofluorescence of the cell suspension were subtracted from the recordings. The maximum Indo-1 fluorescence (Rmax) was obtained by adding 1 µM ionomycin to the cell suspension in the presence of 10 mM extracellular CaCl2. Minimum fluorescence was determined following the depletion of external Ca^2+ with 5 mM EGTA.
To visualize the SOCE, cells were placed into the quartz cuvette and 0.5 EGTA was added just before the beginning of the recordings. To induce the SOCE, the cells were treated with 1 μM thapsigargin (TG) during 10 min in Ca^2+-free HBS to induce Ca^2+ release from the ER and the opening of SOCE channels. Then, 1 mM CaCl2 was added to measure the change in [Ca^2+]cyt subsequently to Ca^2+ influx. In the dose-response experiments, different concentrations of 2-APB and its analogs were added 30 s prior to Ca^2+ readdition.

For assay [2], the system named is Jurkat cell SOCE. The following applies: leukocyte SOCE; cited from earlier work.
Assay [3] has as its system ER Ca2+ stores of L15 fibroblasts. The assay can be described thus: Basal Ca2+ leak from ER stores, unidirectional 45Ca2+ flux in permeabilized L15 fibroblasts. Format: cell-based. As to the method:
(§1) Measurements of SERCA-mediated ^45Ca^2+ store loading and IP3-dependent release from the ER Ca^2+ store were performed on permeabilized cells in unidirectional conditions. As this approach required the use of cells forming strongly adherent monolayers, we used L15 fibroblasts stably overexpressing IP3R1, similarly to our previous work.
The L15 fibroblasts stably overexpressing IP3R1 were seeded in gelatin-coated 12-well plates (Greiner, Frickenhausen, Germany) at a density of 60,000 cells per well. Unidirectional ^45Ca^2+ flux experiments on confluent cell monolayers were performed at 30 °C after membrane permeabilization with saponin (40 µg/mL), exactly as previously described. After permeabilization, the non-mitochondrial Ca^2+ stores were loaded for 45 min in 120 mM KCl, 30 mM imidazole–HCl (pH 6.8), 5 mM MgCl2, 5 mM ATP, 0.44 mM EGTA, 10 mM NaN3, and 150 nM free ^45Ca^2+ (28 µCi mL^−1). Subsequently, efflux was initiated by incubation in efflux medium (120 mM KCl, 1 mM EGTA, 10 µM TG and 30 mM imidazole–HCl pH 6.8). […] The exact amount of Ca^2+ at each time point is calculated by summing in retrograde order the amount of radioactivity remaining in the cells at the end of the efflux and the radioactivity collected during the successive time intervals. […] These various parameters were measured both in control conditions or in the presence of various 2-APB analogs as indicated. […]

The next assay deals with T1, IP3R1 (Mus musculus, UniProt P11881).
T1 construct: expressed in transfected cells; host or cells: L15 fibroblast cell line (gift of Katsuhiko Mikoshiba), saponin-permeabilized
T1 sequence (P11881 whole entry): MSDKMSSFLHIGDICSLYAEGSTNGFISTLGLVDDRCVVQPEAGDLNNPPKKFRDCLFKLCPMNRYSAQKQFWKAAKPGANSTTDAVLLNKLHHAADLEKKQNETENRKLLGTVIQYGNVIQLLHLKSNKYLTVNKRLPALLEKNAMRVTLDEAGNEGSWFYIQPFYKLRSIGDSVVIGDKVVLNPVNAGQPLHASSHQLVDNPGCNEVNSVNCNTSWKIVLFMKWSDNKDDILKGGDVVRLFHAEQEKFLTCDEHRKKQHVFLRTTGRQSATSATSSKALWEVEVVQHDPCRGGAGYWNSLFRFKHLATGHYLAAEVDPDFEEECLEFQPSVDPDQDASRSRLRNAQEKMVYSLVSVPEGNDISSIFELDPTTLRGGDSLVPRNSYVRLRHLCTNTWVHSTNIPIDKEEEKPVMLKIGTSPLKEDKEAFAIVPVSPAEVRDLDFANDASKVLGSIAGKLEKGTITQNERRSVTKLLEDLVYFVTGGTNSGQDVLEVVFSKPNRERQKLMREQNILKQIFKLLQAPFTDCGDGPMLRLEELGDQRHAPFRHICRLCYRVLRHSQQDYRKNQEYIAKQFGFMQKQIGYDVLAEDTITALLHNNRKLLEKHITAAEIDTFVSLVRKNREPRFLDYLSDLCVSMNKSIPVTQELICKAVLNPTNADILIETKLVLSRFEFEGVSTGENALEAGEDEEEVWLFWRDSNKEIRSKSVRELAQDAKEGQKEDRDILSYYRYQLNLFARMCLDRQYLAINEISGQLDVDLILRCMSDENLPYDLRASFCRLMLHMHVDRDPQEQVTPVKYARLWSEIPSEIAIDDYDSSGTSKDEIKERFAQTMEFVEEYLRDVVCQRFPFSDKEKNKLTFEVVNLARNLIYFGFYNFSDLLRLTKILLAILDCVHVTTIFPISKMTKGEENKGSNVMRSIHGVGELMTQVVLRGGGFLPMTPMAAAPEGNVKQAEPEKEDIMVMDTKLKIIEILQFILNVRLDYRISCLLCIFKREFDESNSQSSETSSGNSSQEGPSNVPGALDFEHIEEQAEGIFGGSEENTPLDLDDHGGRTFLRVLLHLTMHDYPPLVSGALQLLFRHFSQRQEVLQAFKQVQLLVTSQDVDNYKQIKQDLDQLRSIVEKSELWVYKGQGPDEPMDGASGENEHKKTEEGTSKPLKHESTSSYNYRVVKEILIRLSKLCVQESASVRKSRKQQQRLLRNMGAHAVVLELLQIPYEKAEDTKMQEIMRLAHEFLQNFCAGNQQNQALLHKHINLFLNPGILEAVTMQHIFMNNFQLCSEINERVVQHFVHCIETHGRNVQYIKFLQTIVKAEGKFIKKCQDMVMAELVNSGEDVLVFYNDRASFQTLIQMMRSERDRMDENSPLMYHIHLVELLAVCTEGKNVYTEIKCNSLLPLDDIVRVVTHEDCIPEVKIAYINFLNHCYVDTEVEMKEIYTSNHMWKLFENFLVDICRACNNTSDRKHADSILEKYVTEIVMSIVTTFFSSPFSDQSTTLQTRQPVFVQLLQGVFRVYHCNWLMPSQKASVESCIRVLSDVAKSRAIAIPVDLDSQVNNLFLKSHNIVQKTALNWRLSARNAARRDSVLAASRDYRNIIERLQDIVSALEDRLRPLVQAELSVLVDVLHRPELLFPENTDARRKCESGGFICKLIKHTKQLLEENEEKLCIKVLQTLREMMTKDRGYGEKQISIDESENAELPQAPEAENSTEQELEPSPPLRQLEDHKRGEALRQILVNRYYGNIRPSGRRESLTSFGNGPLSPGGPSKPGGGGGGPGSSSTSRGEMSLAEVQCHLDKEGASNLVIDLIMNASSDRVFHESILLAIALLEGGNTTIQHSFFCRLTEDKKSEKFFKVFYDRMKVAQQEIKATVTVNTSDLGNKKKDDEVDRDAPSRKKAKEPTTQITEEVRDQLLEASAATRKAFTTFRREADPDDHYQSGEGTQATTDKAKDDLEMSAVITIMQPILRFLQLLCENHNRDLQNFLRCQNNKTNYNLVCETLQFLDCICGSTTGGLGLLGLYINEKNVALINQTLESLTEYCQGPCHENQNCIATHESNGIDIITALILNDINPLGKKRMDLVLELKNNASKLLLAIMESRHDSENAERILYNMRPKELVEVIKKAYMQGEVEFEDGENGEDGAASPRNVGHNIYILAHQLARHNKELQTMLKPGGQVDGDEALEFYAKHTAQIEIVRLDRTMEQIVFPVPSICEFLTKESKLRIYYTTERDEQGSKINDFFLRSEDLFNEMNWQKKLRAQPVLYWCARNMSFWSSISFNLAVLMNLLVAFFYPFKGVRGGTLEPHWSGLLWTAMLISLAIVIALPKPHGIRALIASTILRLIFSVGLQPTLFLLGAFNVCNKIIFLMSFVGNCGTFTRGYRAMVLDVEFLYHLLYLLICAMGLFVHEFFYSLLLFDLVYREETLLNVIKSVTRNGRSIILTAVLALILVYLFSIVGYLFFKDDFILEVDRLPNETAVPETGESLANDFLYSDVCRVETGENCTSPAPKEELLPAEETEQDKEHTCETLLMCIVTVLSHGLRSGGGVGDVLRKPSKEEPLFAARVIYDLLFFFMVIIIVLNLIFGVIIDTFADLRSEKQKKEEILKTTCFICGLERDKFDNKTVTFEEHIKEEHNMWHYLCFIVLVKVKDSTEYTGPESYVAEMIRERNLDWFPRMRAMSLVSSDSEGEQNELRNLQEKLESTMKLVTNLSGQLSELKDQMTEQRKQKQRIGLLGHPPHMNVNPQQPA
The assay can be described thus: IP3-induced Ca2+ release (IICR) in permeabilized L15 fibroblasts overexpressing IP3R1. It is filed as cell-based. The following applies: permeabilized L15 fibroblasts. As to the method:
as §1
The L15 fibroblasts stably overexpressing IP3R1 were seeded in gelatin-coated 12-well plates (Greiner, Frickenhausen, Germany) at a density of 60,000 cells per well. Unidirectional ^45Ca^2+ flux experiments on confluent cell monolayers were performed at 30 °C after membrane permeabilization with saponin (40 µg/mL), exactly as previously described. After permeabilization, the non-mitochondrial Ca^2+ stores were loaded for 45 min in 120 mM KCl, 30 mM imidazole–HCl (pH 6.8), 5 mM MgCl2, 5 mM ATP, 0.44 mM EGTA, 10 mM NaN3, and 150 nM free ^45Ca^2+ (28 µCi mL^−1). Subsequently, efflux was initiated by incubation in efflux medium (120 mM KCl, 1 mM EGTA, 10 µM TG and 30 mM imidazole–HCl pH 6.8). The latter medium was replaced every two minutes for 18 minutes. The exact amount of Ca^2+ at each time point is calculated by summing in retrograde order the amount of radioactivity remaining in the cells at the end of the efflux and the radioactivity collected during the successive time intervals. This allows to calculate the steady-state content of the ER Ca^2+ stores (indicative for the SERCA activity, after subtraction of the loading achieved in the presence of 2 µM TG) the basal leak rate of Ca^2+ out of the stores and the IP3-induced Ca^2+ release after addition of IP3 (0.7 µM). These various parameters were measured both in control conditions or in the presence of various 2-APB analogs as indicated. To assess the effect of the 2-APB analogs on the SERCA-mediated loading of the ER Ca^2+ stores, the analogs were added during the ^45Ca^2+-loading phase as described previously. […]

A further assay has as its target SERCA (Mus musculus, UniProt O55143). The assay can be described thus: SERCA-mediated 45Ca2+ store loading in permeabilized L15 fibroblasts. Format: cell-based. As to conditions: 100 µM; read-out: change of SERCA activity. As to the method:
as §1
The L15 fibroblasts stably overexpressing IP3R1 were seeded in gelatin-coated 12-well plates (Greiner, Frickenhausen, Germany) at a density of 60,000 cells per well. Unidirectional ^45Ca^2+ flux experiments on confluent cell monolayers were performed at 30 °C after membrane permeabilization with saponin (40 µg/mL), exactly as previously described. After permeabilization, the non-mitochondrial Ca^2+ stores were loaded for 45 min in 120 mM KCl, 30 mM imidazole–HCl (pH 6.8), 5 mM MgCl2, 5 mM ATP, 0.44 mM EGTA, 10 mM NaN3, and 150 nM free ^45Ca^2+ (28 µCi mL^−1). Subsequently, efflux was initiated by incubation in efflux medium (120 mM KCl, 1 mM EGTA, 10 µM TG and 30 mM imidazole–HCl pH 6.8). The latter medium was replaced every two minutes for 18 minutes. The exact amount of Ca^2+ at each time point is calculated by summing in retrograde order the amount of radioactivity remaining in the cells at the end of the efflux and the radioactivity collected during the successive time intervals. This allows to calculate the steady-state content of the ER Ca^2+ stores (indicative for the SERCA activity, after subtraction of the loading achieved in the presence of 2 µM TG) the basal leak rate of Ca^2+ out of the stores and the IP3-induced Ca^2+ release after addition of IP3 (0.7 µM). These various parameters were measured both in control conditions or in the presence of various 2-APB analogs as indicated. To assess the effect of the 2-APB analogs on the SERCA-mediated loading of the ER Ca^2+ stores, the analogs were added during the ^45Ca^2+-loading phase as described previously. Obviously, compounds that strongly stimulated the basal Ca^2+ leak out of the stores (as P8) could not be investigated for their effect on SERCA activity (as Ca^2+ loading was already compromised by the increased leak) or on IP3-induced Ca^2+ release (as the decreased luminal Ca^2+ level impacted both the driving force for Ca^2+ release and the sensitivity of the IP3R).

The mark [4] stands for this setting: Jurkat cells, read-out: Ki (nM), inhibition constant on SOCE.
Where [5] appears, read: Jurkat cells, read-out: Ki (µM), inhibition constant on SOCE.

Like-named read-outs stand apart in the source and are kept apart here.

SERCA, sequence (O55143 whole entry): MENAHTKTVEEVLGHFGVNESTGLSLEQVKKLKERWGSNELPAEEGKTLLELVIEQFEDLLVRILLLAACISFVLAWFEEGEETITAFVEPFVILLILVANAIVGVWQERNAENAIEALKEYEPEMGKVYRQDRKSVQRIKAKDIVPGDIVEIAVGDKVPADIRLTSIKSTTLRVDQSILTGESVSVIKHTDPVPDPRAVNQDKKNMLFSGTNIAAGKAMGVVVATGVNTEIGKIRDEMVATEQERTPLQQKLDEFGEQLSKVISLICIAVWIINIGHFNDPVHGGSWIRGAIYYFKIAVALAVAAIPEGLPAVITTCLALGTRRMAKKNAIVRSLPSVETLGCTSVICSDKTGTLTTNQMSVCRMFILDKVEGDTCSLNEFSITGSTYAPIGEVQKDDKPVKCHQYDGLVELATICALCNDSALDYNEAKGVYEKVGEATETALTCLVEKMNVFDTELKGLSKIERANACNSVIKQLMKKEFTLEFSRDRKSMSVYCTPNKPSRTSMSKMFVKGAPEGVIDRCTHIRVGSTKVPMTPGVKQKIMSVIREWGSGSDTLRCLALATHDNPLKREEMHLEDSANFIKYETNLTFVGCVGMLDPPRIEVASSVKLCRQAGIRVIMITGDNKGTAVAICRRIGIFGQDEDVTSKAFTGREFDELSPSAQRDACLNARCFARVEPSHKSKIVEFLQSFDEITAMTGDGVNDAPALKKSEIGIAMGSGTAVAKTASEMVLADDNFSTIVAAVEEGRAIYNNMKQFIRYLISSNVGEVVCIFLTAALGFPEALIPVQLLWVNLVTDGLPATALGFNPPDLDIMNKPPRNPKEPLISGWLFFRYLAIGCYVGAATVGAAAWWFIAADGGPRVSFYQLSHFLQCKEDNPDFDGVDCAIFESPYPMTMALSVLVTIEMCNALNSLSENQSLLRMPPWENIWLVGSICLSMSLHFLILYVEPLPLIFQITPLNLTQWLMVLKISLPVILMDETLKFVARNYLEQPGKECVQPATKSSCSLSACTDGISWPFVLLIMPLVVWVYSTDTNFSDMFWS

Turning to “2-((bis(3,5-dimethylphenyl)boryl)oxy)ethanamine [P10]”, the “concentration of complete/full SOCE inhibition” value in the assay on Jurkat cell SOCE [1] (Jurkat cells) turned out to be 3 µM. In addition, the Ki in the assay with Jurkat cell SOCE [1] (setting [4]) is 484 ± 116 nM; in the assay on Jurkat cell SOCE [1] (setting [5]), about 500 nM.
With `Cc1ccc([B-]2(c3ccc(C)c(Cl)c3)[NH2+]CCO2)cc1Cl` [P15], the Ki in the assay on Jurkat cell SOCE [1] (setting [4]) is 294 ± 74 nM; with Jurkat cell SOCE [1] (setting [5]), about 300 nM.
For the molecule `NCCOB(c1ccc2sccc2c1)c1ccc2sccc2c1` [P12, 2-(dibenzo[b]thiophen-5-ylboryloxy)ethanamine], in the assay on Jurkat cell SOCE [1] (setting [4]), the Ki is 374 ± 96 nM.
“2-((bis(3-methoxyphenyl)boryl)oxy)ethanamine [P4]”: in the assay with Jurkat cell SOCE [1] (Jurkat cells), the “maximal inhibition of SOCE” value is reported as “≈ 80%”. The Ki with Jurkat cell SOCE [1] (setting [5]) turned out to be 75000 ± 21000 nM.
With 2-((di-m-tolylboryl)oxy)ethanamine [P5], the Ki with Jurkat cell SOCE [1] (setting [5]) was determined as 2100 ± 600 nM.
Consider “((diphenylboryl)oxy)ethanamine [2-APB, reference compound]”, for which the “concentration of full SOCE block” value in the assay on Jurkat cell SOCE [2] was 20 to 30 µM. The “SOCE potentiation, % of control [Ca2+]cyt increase” value with Jurkat cell SOCE [1] (5 µM, Jurkat cells) is on record as over 200%. Besides, the SOCE inhibition entry in the assay with Jurkat cell SOCE [1] (50 µM, Jurkat cells) is listed as “almost total inhibition”.
As for 2-((di-p-tolylboryl)oxy)ethanamine [P3], the Ki with Jurkat cell SOCE [1] (setting [5]) is 3500 ± 600 nM.
On to `Fc1ccc([B-]2(c3ccc(F)cc3)[NH2+]CCO2)cc1` [P14], for which, in the assay with Jurkat cell SOCE [1] (setting [5]), the Ki is 5400 ± 300 nM.
Same read-out and setting: with “2-((bis(4-methoxyphenyl)boryl)oxy)ethanamine [P2]” the figure was 3500 ± 650 nM.
“2-((di(naphthalen-2-yl)boryl)oxy)ethanamine [P6]”: the Ki in the assay with Jurkat cell SOCE [1] (setting [4]) worked out at 275 ± 17 nM.
In the case of “2-(((4-methoxyphenyl)(p-tolyl)boryl)oxy)ethanamine [P16]”, the Ki in the assay on Jurkat cell SOCE [1] (setting [5]) was 3100 ± 600 nM.
For “2-((bis(4-(tert-butyl)phenyl)boryl)oxy)ethanamine [P8]”, the “Ca2+ leak from the ER by an IP3-independent pathway” value in assay [3] was “strong Ca^2+ leak”. In addition, the Ki in the assay with Jurkat cell SOCE [1] (setting [4]) came out at 350 ± 40 nM.
Take “2-((bis(3,4-dimethylphenyl)boryl)oxy)ethanamine [P7]”: the Ki with Jurkat cell SOCE [1] (setting [4]) came out at 751 ± 97 nM.
Consider `CC1(C)c2ccccc2-c2ccc([B-]3(c4ccc5c(c4)C(C)(C)c4ccccc4-5)[NH2+]CCO3)cc21` [P17], for which the Ki with Jurkat cell SOCE [1] (setting [5]) was over 100000 nM. For the same molecule, the “effect on SOCE amplitude” value with Jurkat cell SOCE [1] (concentrations >3 µM, higher concentrations disrupted the fluorescence) is given as “no effect”.
Consider `CCCCc1ccc([B-]2(c3ccc(CCCC)cc3)[NH2+]CCO2)cc1` [P9], for which the “inhibition of IP3R activity” value against IP3R1 was “did not significantly inhibit”. Besides, on SERCA, the inhibition at 100 µM was determined as 52 ± 3%. In the assay on Jurkat cell SOCE [1] (setting [4]), the Ki was 641 ± 103 nM.
Take `Clc1ccc([B-]2(c3ccc(Cl)cc3)[NH2+]CCO2)cc1` [P13]: the Ki in the assay on Jurkat cell SOCE [1] (setting [5]) amounted to 1800 ± 100 nM.
